Data as given in US10568899B2, “Combinations of a mithramycin analogue and another chemotherapeutic agent for the treatment of triple negative breast cancer” (ENTRECHEM, S.L., priority 2015, dated 2020).

Columns and labels:
[1] = system: MDA-MB-231 cells; assay: MTT-based cell proliferation assay, single drugs and combinations (CI by CalcuSyn)
Method: (§1) All cell lines were cultured at 37° C. in a humidified atmosphere in the presence of a mixture of 5% CO2 and 95% air. Cells were grown in DMEM or in RPMI medium containing high glucose concentration (4,500 mg/liter) and antibiotics (penicillin at 100 mU/ml, streptomycin at 100 μg/ml) and supplemented with 10% FBS. Cell lines were provided by Drs. J. Losada and A. Balmain, (originally from Dr. J. W. Gray's Laboratory who in turn obtained them from the ATCC or from collections development in the laboratories of Drs. S. Ethier and A. Gazdar, to avoid errors occurring when obtained through “second-hand” sources) [Cancer Cell. (2006) 10:515-527]. Cell identities were verified by STR analyses [Oncogene (2014) 33:148-156].
(§2) Cells were plated in 24-well plates at 10,000-20,000 cells/well and cultured overnight in DMEM or RPMI+10% FBS. […] Cell proliferation was analyzed 48 and 72 hours later by an MTT-based assay as described in Cancer Res. (2005) 65:6801-6810.
(§3) Results are plotted as the mean±SD values of quadruplicates from two experiments.
(§4) To explore whether F(I) potentiated the action of drugs used in the therapy of TNBC, drug combination experiments were performed, and the results analyzed by the Chou and Talalay algorithm [Adv. Enzyme Regul.

[2] = Body weight of treated mice; assay type: in vivo
Method: (§5) Mice were manipulated at the animal facility of the CIC in Salamanca following legal guidelines. Female BALB/c nu/nu mice (7 weeks old) were obtained from Charles River Laboratories (Wilmington, Mass., USA). A total of 5×10^6 MDA-MB231 cells in 100 μL of DMEM and 100 μL of Matrigel (BD Biosciences) were injected subcutaneously into the right and left flank of each mouse. When tumours reached a mean volume of 100 mm^3, animals (n=32) were randomized into four groups (with equal average tumour volumes) (vehicle n=8, F(I) n=8, docetaxel n=8, and F(I)+docetaxel n=8). Mice were treated every four days intravenously with 12 mg/kg of F(I), and weekly, intraperitoneally with docetaxel 15 mg/kg. Tumour diameters were serially measured by callipers twice per week and tumour volumes were calculated by the following formula: volume=width^2×length/2. Mice were sacrificed on day 41. For biochemical and drug accumulation analyses, tumor samples were obtained after sacrifice of the animals by CO2 inhalation, and 6 hours after being treated with the different drugs, and immediately frozen in liquid nitrogen. The tumors were minced, washed with PBS, and homogenized (Dispomix, L&M Biotech, Holly Springs, N.C., USA) in ice-cold lysis buffer (1.5 mL/100 mg tumor). This homogenate was centrifuged at 10,000×g for 20 minutes at 4° C., and the supernatants were transferred to new tubes. […]

[3] = cited from earlier work
[4] = system: TNBC cell lines (HCC-70, HCC-3153, BT549, MDA-MB-231, HCC-1937, HBL-100, HCC-1187 and HS578T); assay: MTT metabolism in panel of TNBC cell lines; assay type: cell-based
Method: as §1
Cells were plated in 24-well plates at 10,000-20,000 cells/well and cultured overnight in DMEM or RPMI+10% FBS. The next day medium was replaced with DMEM or RPMI containing different concentrations of F(I). Cell proliferation was analyzed 48 and 72 hours later by an MTT-based assay as described in Cancer Res. (2005) 65:6801-6810. […]
To analyze the potential antineoplastic effect of F(I) on TNBC, its action on a panel of eight representative TNBC cell lines (HCC-70, HCC-3153, BT549, MDA-MB-231 (MDAMB231), HCC-1937, HBL-100 (HBL100), HCC-1187 and HS578T) using MTT metabolism as readout of the effect of F(I) on cell number was evaluated. […]

[5] = system: MDA-MB-231 xenografted tumors; assay: Xenograft study, tumour volume; assay type: in vivo, mice; conditions: F(I) 12 mg/kg intravenously every 3 days; FIG. 2
Method: as §5, with “Mice were treated every four days intravenously with 12 mg/kg of F(I), and weekly, intraperitoneally with docetaxel 15 mg/kg.” left out, “tumor).” for “tumor). This homogenate was centrifuged at 10,000×g for 20 minutes at 4° C., and the supernatants were transferred to new tubes.”
Comparisons of continuous variables between two groups for the mice tumor model experiments were performed using a two-sided Student's t-test. […] All data were analyzed using the statistical software SPSS 21.0 (SPSS Inc., Chicago, Ill.). […]

[6] = system: HBL-100 cells; assay: MTT-based cell proliferation assay, single drugs and combinations (CI by CalcuSyn)
Method: as §1, §2, §3, §4

[7] = F(I) concentration in the tumors; assay type: in vivo; conditions: 6 hours after the last treatment, F(I) 12 mg/kg intravenously, two tumors from two different mice
Method: as §5

SMILES: CCC1=C[C@@H]2CN(C1)Cc1c([nH]c3ccccc13)[C@@](C(=O)OC)(c1cc3c(cc1OC)N(C)[C@H]1[C@@](O)(C(=O)OC)[C@H](OC(C)=O)[C@]4(CC)C=CCN5CC[C@]31[C@@H]54)C2 [Vinorelbine, vinorelbine]
- MTT metabolism mean, Assay 1 ([1]; Vinorelbine 1 nM alone): 94.11%
- MTT metabolism mean, Assay 2 ([1]; Vinorelbine 1 nM alone): 73.02%
- MTT metabolism mean, Assay 1 ([1]; Vinorelbine 3 nM alone): 84.61%
- MTT metabolism mean, Assay 2 ([1]; Vinorelbine 3 nM alone): 71.99%
- MTT metabolism mean, Assay 1 ([1]; Vinorelbine 5 nM alone): 84.42%
- MTT metabolism mean, Assay 2 ([1]; Vinorelbine 5 nM alone): 56.42%

SMILES: CO[C@@H]([C@@H]1Cc2cc3cc(O[C@H]4CC(O[C@H]5CC(O)[C@H](O)C(C)O5)[C@H](O)C(C)O4)c(C)c(O)c3c(O)c2C(=O)[C@H]1O[C@H]1CC(O[C@H]2CC(O[C@H]3CC(O)[C@H](O)C(C)O3)[C@@H](O)C(C)O2)[C@H](O)C(C)O1)[C@@H](O)C(C)=O (stereo partly drawn) [F(I), demycarosyl-3D-β-D-digitoxosyl-mithramycin SK]
- Body weight ([2]; F(I) 12 mg/kg, FIG. 3): slight decrease initially
- Tolerability ([2]; alone or in combination, suggested by body weights, FIG. 6): well tolerated
- Toxicity in vivo relative to mithramycin (times less toxic) [3]: 10 times
- IC50 ([4]; 72 hours of treatment, all cell lines (FIG. 1)): < 100 nM
- Effect on MTT metabolism ([4]; all the TNBC cell lines studied, 48 or 72 hours, different doses): decreased MTT metabolism of all the TNBC cell lines studied in a dose-dependent and time-dependent manner
- Effect on tumor growth [5]: inhibitory effect on tumor growth
- MTT metabolism mean, Assay 1 ([6]; F(I) 10 nM alone): 85.52%
- MTT metabolism mean, Assay 2 ([6]; F(I) 10 nM alone): 99.53%
- MTT metabolism mean, Assay 1 ([6]; F(I) 50 nM alone): 66.35%
- MTT metabolism mean, Assay 2 ([6]; F(I) 50 nM alone): 62.85%
- MTT metabolism mean, Assay 1 ([1]; F(I) 10 nM alone): 94.27%
- MTT metabolism mean, Assay 2 ([1]; F(I) 10 nM alone): 96.65%
- MTT metabolism mean, Assay 1 ([1]; F(I) 50 nM alone): 70.05%
- MTT metabolism mean, Assay 2 ([1]; F(I) 50 nM alone): 59.26%
- F(I) concentration in the tumors [7]: 2.2 µg/g
- concentration at 6 h ([7]; female, BALB/c nu/nu, mouse, tumor, iv, 12 mg/kg): 3800 ng/g

SMILES: Nc1ccn([C@@H]2O[C@H](CO)[C@@H](O)C2(F)F)c(=O)n1 [Gemcitabine, gemcitabine]
- MTT metabolism mean, Assay 1 ([6]; Gemcitabine 5 nM alone): 90.75%
- MTT metabolism mean, Assay 2 ([6]; Gemcitabine 5 nM alone): 88.93%
- MTT metabolism mean, Assay 1 ([6]; Gemcitabine 10 nM alone): 85.93%
- MTT metabolism mean, Assay 2 ([6]; Gemcitabine 10 nM alone): 83.52%
- MTT metabolism mean, Assay 1 ([6]; Gemcitabine 20 nM alone): 61.98%
- MTT metabolism mean, Assay 2 ([6]; Gemcitabine 20 nM alone): 80.59%
- MTT metabolism mean, Assay 1 ([1]; Gemcitabine 5 nM alone): 77.29%
- MTT metabolism mean, Assay 2 ([1]; Gemcitabine 5 nM alone): 90.99%
- MTT metabolism mean, Assay 1 ([1]; Gemcitabine 10 nM alone): 67.76%
- MTT metabolism mean, Assay 2 ([1]; Gemcitabine 10 nM alone): 84.33%
- MTT metabolism mean, Assay 1 ([1]; Gemcitabine 20 nM alone): 48.14%
- MTT metabolism mean, Assay 2 ([1]; Gemcitabine 20 nM alone): 64.95%

SMILES: CC(=O)O[C@@]12CO[C@@H]1C[C@H](O)[C@@]1(C)C(=O)[C@H](O)C3=C(C)[C@@H](OC(=O)[C@H](O)[C@@H](NC(=O)OC(C)(C)C)c4ccccc4)C[C@@](O)([C@@H](OC(=O)c4ccccc4)[C@H]21)C3(C)C [Docetaxel, docetaxel]
- MTT metabolism mean, Assay 1 ([6]; Docetaxel 2.5 nM alone): 96.93%
- MTT metabolism mean, Assay 2 ([6]; Docetaxel 2.5 nM alone): 83.41%
- MTT metabolism mean, Assay 1 ([6]; Docetaxel 5 nM alone): 85.11%
- MTT metabolism mean, Assay 2 ([6]; Docetaxel 5 nM alone): 70.61%
- MTT metabolism mean, Assay 1 ([6]; Docetaxel 10 nM alone): 55.03%
- MTT metabolism mean, Assay 2 ([6]; Docetaxel 10 nM alone): 54.59%
- MTT metabolism mean, Assay 1 ([1]; Docetaxel 2.5 nM alone): 84.46%
- MTT metabolism mean, Assay 2 ([1]; Docetaxel 2.5 nM alone): 60.92%
- MTT metabolism mean, Assay 1 ([1]; Docetaxel 5 nM alone): 69.03%
- MTT metabolism mean, Assay 2 ([1]; Docetaxel 5 nM alone): 51.36%
- MTT metabolism mean, Assay 1 ([1]; Docetaxel 10 nM alone): 38.17%
- MTT metabolism mean, Assay 2 ([1]; Docetaxel 10 nM alone): 44.50%

SMILES: Cc1nc(Nc2ncc(C(=O)Nc3c(C)cccc3Cl)s2)cc(N2CCN(CCO)CC2)n1 [Dasatinib, dasatinib]
- MTT metabolism mean, Assay 1 ([6]; Dasatinib 0.5 μM alone): 61.25%
- MTT metabolism mean, Assay 2 ([6]; Dasatinib 0.5 μM alone): 65.30%
- MTT metabolism mean, Assay 1 ([6]; Dasatinib 1.0 μM alone): 61.08%
- MTT metabolism mean, Assay 2 ([6]; Dasatinib 1.0 μM alone): 64.94%
- MTT metabolism mean, Assay 1 ([6]; Dasatinib 2.0 μM alone): 58.58%
- MTT metabolism mean, Assay 2 ([6]; Dasatinib 2.0 μM alone): 58.48%
- MTT metabolism mean, Assay 1 ([1]; Dasatinib 0.5 μM alone): 65.29%
- MTT metabolism mean, Assay 2 ([1]; Dasatinib 0.5 μM alone): 62.89%
- MTT metabolism mean, Assay 1 ([1]; Dasatinib 1.0 μM alone): 59.58%
- MTT metabolism mean, Assay 2 ([1]; Dasatinib 1.0 μM alone): 63.07%
- MTT metabolism mean, Assay 1 ([1]; Dasatinib 2.0 μM alone): 56.05%
- MTT metabolism mean, Assay 2 ([1]; Dasatinib 2.0 μM alone): 55.89%
